The source made the active and inactive calls.
Assays:
[1] = molecular target: Inward rectifier potassium channel 2 (Mus musculus, UniProt P35561); test: Manual electrophysiological patch clamp assay for SAR compounds that inhibit/block inward-rectifying potassium ion channel Kir2.1. [Related pubchem assays: 1843 (Summary assay for Kir2.1 inhibitor assays.), 1672 (Primary HTS of 305616 compounds where 2592 were identified as active.)]; assay type: functional
Cytochrome P450 2D6 = Cytochrome P450 2D6 (Homo sapiens, UniProt P10635); test: qHTS Assay for Inhibitors and Substrates of Cytochrome P450 2D6. [Related pubchem assays: 410 ]; assay type: ADME; details: read-out: Potency
Chain of Cytochrome P450 2D6 (P10635 whole entry): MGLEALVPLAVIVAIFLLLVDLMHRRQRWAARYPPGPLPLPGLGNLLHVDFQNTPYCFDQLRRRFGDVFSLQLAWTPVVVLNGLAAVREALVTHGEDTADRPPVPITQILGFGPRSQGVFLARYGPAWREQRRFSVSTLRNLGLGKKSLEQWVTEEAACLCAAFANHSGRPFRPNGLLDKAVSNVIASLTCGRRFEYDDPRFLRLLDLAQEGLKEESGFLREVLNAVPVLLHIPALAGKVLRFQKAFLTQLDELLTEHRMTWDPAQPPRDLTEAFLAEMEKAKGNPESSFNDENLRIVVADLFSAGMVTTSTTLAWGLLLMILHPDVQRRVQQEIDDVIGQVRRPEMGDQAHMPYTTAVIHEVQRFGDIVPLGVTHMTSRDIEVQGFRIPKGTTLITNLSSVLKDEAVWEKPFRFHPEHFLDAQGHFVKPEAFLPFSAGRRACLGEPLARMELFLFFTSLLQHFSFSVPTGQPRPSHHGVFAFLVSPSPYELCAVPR

Cytochrome P450 2C9 = Cytochrome P450 2C9 (Homo sapiens, UniProt P11712); details: Potency
[2] = molecular target: Sphingosine 1-phosphate receptor 2 (Homo sapiens, UniProt O95136); test: Dose Response Cell Based Assay for Agonists of the S1P2 Receptor of Purchased Analogues. [Related pubchem assays: 729, 843, 854, 736 ]; assay type: functional
[3] = Luminescence Cell-Based Dose Retest to Confirm Inhibitors of Cancer Stem Cells. [Related pubchem assays (depositor defined):AID2717, AID2721]; assay type: functional; details: Homo sapiens
[4] = molecular target: Lysosomal acid glucosylceramidase (Homo sapiens, UniProt P04062); test: Dose response cell-based high throughput screening assay to identify enhancers of beta-glucosidase activity. [Related pubchem assays: 784 ]; assay type: functional
Chain of Lysosomal acid glucosylceramidase (P04062 whole entry): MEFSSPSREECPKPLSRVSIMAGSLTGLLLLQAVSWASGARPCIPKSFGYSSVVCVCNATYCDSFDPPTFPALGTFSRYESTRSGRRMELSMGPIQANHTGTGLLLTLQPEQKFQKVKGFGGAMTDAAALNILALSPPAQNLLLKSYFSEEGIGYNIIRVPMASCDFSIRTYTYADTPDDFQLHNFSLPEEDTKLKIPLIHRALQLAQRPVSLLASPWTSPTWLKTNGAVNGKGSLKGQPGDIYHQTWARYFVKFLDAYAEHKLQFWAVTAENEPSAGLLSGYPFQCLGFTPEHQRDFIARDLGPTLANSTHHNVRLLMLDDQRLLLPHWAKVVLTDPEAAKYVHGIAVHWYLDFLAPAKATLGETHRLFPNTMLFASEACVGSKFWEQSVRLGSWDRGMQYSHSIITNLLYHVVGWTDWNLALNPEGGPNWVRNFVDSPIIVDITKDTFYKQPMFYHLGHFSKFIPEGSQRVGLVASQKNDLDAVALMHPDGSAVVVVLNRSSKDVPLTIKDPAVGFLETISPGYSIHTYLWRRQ

[5] = molecular target: T1, Induced myeloid leukemia cell differentiation protein Mcl-1 (Homo sapiens, UniProt Q07820); test: MCL1-BIM BH3 interaction inhibitors, dose response, biochemical, fluorescence polarization, BIM-BH3 peptide, 1536-well (AID 2217)
T1 sequence (Q07820 whole entry): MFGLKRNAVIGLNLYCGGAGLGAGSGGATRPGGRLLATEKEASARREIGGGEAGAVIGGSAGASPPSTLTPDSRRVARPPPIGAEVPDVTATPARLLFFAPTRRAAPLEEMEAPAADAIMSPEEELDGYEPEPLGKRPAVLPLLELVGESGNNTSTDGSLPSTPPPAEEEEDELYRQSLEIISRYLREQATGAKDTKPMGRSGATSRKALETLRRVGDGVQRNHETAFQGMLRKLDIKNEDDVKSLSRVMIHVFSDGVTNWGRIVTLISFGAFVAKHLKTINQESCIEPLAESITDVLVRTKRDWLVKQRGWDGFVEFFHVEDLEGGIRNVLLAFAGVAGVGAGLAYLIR

Bcl-2-like protein 1 = Bcl-2-like protein 1 (Homo sapiens, UniProt Q07817); test: BCL-XL inhibitors, dose response, selectivity assay for MCL1 inhibitor project, biochemical, fluorescence polarization, 1536-well (AID 2218)
[6] = molecular target: T1, Induced myeloid leukemia cell differentiation protein Mcl-1; assay type: functional
Genome polyprotein = Genome polyprotein (dengue virus type 2, UniProt P29990); test: Dengue-2 NS5 methyltransferase inhibitors, primary screen, biochemical, confirmation dose response (AID 588689); assay type: functional
Fatty acid synthase [7] = molecular target: T2, Fatty acid synthase (Homo sapiens, UniProt P49327); test: FAS thioesterase domain inhibitors, dose response, biochemical, endpoint fluorescence intensity, uHTS hits (AID 624327); assay type: functional;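 further: fluorescence from hydrolysis of an O-methyl fluorescein acyl ester substrate by the enzyme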
T2 sequence (P49327 whole entry, the tested form may be a part): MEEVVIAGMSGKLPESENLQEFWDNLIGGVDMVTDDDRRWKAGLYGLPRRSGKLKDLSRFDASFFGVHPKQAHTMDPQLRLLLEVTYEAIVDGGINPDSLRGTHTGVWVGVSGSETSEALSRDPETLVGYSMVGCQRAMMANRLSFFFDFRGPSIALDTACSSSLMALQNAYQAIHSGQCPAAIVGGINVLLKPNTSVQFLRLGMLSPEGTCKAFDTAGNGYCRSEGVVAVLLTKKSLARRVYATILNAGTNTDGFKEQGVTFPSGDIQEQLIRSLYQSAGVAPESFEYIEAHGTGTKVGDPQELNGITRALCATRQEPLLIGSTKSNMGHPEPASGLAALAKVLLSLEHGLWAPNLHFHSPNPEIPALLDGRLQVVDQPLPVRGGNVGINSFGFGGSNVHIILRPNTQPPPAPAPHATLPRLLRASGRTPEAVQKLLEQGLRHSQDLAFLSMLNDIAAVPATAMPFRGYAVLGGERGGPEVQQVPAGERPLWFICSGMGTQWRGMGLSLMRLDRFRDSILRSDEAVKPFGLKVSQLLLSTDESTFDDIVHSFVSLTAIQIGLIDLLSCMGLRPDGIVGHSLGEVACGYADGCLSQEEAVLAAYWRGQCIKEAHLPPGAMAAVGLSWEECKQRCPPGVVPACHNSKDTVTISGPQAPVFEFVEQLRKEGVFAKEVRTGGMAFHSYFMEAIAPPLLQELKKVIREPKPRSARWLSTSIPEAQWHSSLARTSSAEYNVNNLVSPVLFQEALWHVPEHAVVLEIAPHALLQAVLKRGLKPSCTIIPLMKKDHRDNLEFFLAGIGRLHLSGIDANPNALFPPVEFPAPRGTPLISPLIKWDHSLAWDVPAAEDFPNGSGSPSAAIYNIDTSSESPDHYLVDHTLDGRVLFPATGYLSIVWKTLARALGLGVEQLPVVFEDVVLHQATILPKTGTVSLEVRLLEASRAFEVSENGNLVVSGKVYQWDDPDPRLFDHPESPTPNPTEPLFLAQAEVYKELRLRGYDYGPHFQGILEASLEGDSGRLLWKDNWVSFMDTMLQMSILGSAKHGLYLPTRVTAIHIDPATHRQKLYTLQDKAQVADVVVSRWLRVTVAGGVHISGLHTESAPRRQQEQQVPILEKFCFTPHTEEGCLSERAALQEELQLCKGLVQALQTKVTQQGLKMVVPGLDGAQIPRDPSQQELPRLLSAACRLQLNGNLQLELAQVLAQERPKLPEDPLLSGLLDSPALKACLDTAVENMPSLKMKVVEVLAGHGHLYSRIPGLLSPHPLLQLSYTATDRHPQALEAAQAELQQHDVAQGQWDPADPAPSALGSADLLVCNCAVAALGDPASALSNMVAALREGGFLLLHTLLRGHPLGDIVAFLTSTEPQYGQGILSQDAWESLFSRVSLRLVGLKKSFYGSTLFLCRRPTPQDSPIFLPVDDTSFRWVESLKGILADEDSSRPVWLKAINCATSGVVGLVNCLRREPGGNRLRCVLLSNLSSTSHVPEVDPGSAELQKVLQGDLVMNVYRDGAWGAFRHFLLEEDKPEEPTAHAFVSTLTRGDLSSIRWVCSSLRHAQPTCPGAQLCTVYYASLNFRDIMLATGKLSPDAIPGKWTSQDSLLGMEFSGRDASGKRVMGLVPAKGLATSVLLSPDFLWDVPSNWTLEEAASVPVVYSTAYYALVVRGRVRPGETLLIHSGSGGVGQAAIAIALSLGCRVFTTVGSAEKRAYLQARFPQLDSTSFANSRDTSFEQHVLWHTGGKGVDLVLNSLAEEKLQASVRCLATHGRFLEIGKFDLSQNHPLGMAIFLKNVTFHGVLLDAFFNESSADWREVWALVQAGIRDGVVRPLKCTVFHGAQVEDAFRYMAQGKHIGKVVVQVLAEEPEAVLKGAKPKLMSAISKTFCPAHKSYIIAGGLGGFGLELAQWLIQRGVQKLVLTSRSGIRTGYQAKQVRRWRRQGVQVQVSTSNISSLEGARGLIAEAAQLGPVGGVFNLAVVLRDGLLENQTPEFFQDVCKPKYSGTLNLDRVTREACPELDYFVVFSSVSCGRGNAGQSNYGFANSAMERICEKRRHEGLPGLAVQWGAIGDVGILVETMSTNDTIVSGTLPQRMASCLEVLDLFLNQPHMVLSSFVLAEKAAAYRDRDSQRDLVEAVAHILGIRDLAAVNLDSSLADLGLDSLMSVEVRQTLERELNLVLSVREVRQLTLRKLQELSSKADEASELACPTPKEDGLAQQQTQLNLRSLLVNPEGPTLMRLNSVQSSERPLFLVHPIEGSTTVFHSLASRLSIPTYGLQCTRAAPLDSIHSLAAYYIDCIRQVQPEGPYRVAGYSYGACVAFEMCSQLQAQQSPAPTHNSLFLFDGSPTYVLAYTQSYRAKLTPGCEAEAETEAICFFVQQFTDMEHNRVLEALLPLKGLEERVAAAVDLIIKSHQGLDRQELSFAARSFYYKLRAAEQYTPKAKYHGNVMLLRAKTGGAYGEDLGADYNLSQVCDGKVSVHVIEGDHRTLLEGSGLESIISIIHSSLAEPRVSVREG

Fatty acid synthase [8] = molecular target: T2, Fatty acid synthase; test: FAS thioesterase domain inhibitors, dose response, biochemical, kinetic fluorescence intensity (AID 624326); assay type: functional;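 further: rate of fluorescence rise from hydrolysis of a fluorogenic O-methyl fluorescein ester substrate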
[9] = enhancers of respiration in Yfh1-depleted yeast, dose response, Friedreich's ataxia, plus single-dose screen (AID 1465); assay type: functional;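 further: yeast depleted of Yfh1p frataxin homolog grown on glycerol needing respiration; WST-1 tetrazolium dye reduction as measure of cellular dehydrogenase metabolic activity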
[10] = molecular target: 26S proteasome non-ATPase regulatory subunit 14 (Homo sapiens, UniProt O00487); test: inhibition of proteasome subunit RPN11 – biochemical, fluorescence polarization, uHTS hits, confirmation (AID 602368); assay type: functional
[11] = molecular target: 72 kDa type IV collagenase (Homo sapiens, UniProt P08253); test: Dose Response validation of uHTS RPN11 inhibitor hits using a MMP-2 Fluorescence assay.; assay type: functional
Prothrombin = Prothrombin (Bos taurus, UniProt P00735); test: thrombin inhibition, dose response, biochemical, fluorescence polarization, uHTS hits (AID 602369); assay type: functional
[12] = luciferase reporter signal reduction – luminescence, H4-C neuroglioblastoma cells, dose response (AID 2458); assay type: functional, cell-based;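 further: H4 neuroglioblastoma cells stably carrying a luciferase reporter gene fusion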
BJ [13] = test: cytotoxicity toward BJ-TERT fibroblasts, dose response, cell-based, RAS-independent, luminescence (AID 1933); assay type: functional; details: Homo sapiens
cells = assay type: functional, cell-based
[14] = inhibitors of SNCA 5'UTR-driven reporter translation, confirmation, H4 neuroglioma cells, luminescence (AID 1988); assay type: functional, cell-based
BJ [15] = test: cells; assay type: functional, cell-based; details: Homo sapiens
BJ [16] = test: cytotoxicity toward BJ-TERT-LT-ST fibroblasts, dose response, cell-based, RAS-independent, luminescence (AID 1935); assay type: functional; details: Homo sapiens;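 further: BJ fibroblasts immortalized with TERT plus LT and ST oncogenes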
[17] = cytotoxicity toward DRD oncogenic fibroblasts, dose response, cell-based, non-viral oncogenic, luminescence (AID 1934); assay type: functional; details: Homo sapiens
[18] = inhibitors of SNCA 5'UTR-driven translation, confirmation, luminescence, H4 neuroglioblastoma cells, dose confirmation (AID 2454); assay type: functional, cell-based;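 further: H4 neuroglioblastoma cells carrying an alpha-synuclein 5'UTR luciferase reporter; potency for inhibition of the luciferase signal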
[19] = molecular target: T3, Neuropeptide Y receptor type 1 (Homo sapiens, UniProt P25929); test: Fluorescence-based counterscreen for potentiators or agonists of NPY-Y2: cell-based high-throughput dose response assay for potentiators or agonists of NPY-Y1.; assay type: functional
T3 sequence (P25929 whole entry): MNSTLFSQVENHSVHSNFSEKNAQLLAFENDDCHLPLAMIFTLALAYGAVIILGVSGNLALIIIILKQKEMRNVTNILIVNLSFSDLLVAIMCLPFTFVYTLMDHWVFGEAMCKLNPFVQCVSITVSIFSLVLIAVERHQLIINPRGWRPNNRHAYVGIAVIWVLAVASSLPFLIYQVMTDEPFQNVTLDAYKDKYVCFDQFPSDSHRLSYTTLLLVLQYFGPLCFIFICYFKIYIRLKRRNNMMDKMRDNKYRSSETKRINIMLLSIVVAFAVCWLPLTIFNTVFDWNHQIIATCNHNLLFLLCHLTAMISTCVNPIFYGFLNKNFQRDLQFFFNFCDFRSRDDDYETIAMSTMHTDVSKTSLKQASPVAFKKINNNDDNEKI

HEK293 = test: Fluorescence-based counterscreen for potentiators or agonists of NPY-Y2: cell-based high-throughput dose response assay to identify inhibitors of cyclic nucleotide gated ion channel (CNGC) activity. In this assay, the parental HEK293 cell line transfected with a cyclic-nucleotide gated ion channel (CNGC)-based cAMP sensor is used to measure inhibition of isoproterenol-induced CNGC activity by test compound.; assay type: functional; details: Homo sapiens;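 further: stimulus is 1 µM isoproterenol at EC100 plus PDE inhibitor Ro 20-1724 at 25 µM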
[20] = molecular target: T4, Neuropeptide Y receptor type 2 (Homo sapiens, UniProt P49146); test: Fluorescence-based cell-based high-throughput dose response assay for agonists of NPY-Y2. [Related pubchem assays: 1703 (Screening assay (CNGC inhibitors).), 1359 (Screening assay (NPY-Y2 potentiators or agonists).), 1304 (Screening assay (NPY-Y1 potentiators or agonists).), 1710 (Screening assay (NPY-Y2 agonists).), 1791 (Summary AID.)]; assay type: functional
T4 sequence (P49146 whole entry): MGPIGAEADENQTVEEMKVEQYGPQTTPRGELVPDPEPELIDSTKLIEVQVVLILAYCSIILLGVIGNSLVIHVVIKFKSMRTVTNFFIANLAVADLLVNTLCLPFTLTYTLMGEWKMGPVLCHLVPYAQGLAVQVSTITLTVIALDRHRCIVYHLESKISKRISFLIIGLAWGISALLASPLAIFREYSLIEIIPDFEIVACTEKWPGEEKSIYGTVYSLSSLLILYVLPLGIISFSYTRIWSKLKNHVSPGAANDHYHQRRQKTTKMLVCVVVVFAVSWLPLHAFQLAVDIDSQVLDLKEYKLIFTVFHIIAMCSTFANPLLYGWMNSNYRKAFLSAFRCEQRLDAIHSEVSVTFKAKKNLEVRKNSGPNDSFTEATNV

[21] = molecular target: T4, Neuropeptide Y receptor type 2; test: Fluorescence-based cell-based high-throughput dose response assay for potentiators or agonists of NPY-Y2. [Related pubchem assays: 1539 (Screening assay (NPY-Y2 potentiators or agonists).), 1703 (Screening assay (CNGC inhibitors).), 1359 (Screening assay (NPY-Y2 potentiators or agonists).), 1304 (Screening assay (NPY-Y1 potentiators or agonists).) …; assay type: functional
[22] = molecular target: T3, Neuropeptide Y receptor type 1; test: Fluorescence-based counterscreen for agonists of NPY-Y2: cell-based high-throughput dose response assay for agonists of NPY-Y1.; assay type: functional
Staphylococcus aureus = test: Inhibitors of Bacterial Quorum Sensing Structure Activity Relationship (SAR) Analysis: Dose Response Assay. [Related pubchem assays: 700, 527 ]; assay type: functional, organism-based
Vero [23] = test: cytotoxicity of synthesized analogs in Vero cells, SAR follow-up, cytotoxicity control for West Nile virus antiviral project, cell-based, set II (AID 2402); assay type: functional; details: Chlorocebus sabaeus
Vero [24] = test: Vero E6 cell cytotoxicity, SAR follow-up, cytotoxicity control for West Nile virus antiviral project, synthesized analogs (AID 2244); assay type: functional; details: Chlorocebus sabaeus
[25] = molecular target: 5-hydroxytryptamine receptor 1E (Homo sapiens, UniProt P28566); test: Counterscreen assay for S1P3 antagonists: Dose response cell-based high throughput screening assay to identify antagonists of the 5-Hydroxytryptamine Receptor Subtype 1E (5HT1E). [Related pubchem assays: 1429, 485 ]; assay type: functional
[26] = molecular target: Sphingosine 1-phosphate receptor 3 (Homo sapiens, UniProt Q99500); test: Dose response cell-based high throughput screening assay for antagonists of the Sphingosine 1-Phosphate Receptor 3 (S1P3). [Related pubchem assays: 1429, 485 ]; assay type: functional
[27] = molecular target: Signal transducer and activator of transcription 3 (Homo sapiens, UniProt P40763); test: STAT3 activators, late-stage profile, late-stage follow-up, cell-based, STAT1 reporter, BCL3 qPCR, cytotoxicity, panel member STAT3 Activation (AID 2049)
Wee1-like protein kinase = Wee1-like protein kinase (Homo sapiens, UniProt P30291); test: G2/M cell cycle arrest in HeLa, late-stage follow-up, mechanism study for Wee1 degradation inhibitor project, FACS, panel member Wee1 Degradation (AID 2088)
Chain of Wee1-like protein kinase (P30291 whole entry): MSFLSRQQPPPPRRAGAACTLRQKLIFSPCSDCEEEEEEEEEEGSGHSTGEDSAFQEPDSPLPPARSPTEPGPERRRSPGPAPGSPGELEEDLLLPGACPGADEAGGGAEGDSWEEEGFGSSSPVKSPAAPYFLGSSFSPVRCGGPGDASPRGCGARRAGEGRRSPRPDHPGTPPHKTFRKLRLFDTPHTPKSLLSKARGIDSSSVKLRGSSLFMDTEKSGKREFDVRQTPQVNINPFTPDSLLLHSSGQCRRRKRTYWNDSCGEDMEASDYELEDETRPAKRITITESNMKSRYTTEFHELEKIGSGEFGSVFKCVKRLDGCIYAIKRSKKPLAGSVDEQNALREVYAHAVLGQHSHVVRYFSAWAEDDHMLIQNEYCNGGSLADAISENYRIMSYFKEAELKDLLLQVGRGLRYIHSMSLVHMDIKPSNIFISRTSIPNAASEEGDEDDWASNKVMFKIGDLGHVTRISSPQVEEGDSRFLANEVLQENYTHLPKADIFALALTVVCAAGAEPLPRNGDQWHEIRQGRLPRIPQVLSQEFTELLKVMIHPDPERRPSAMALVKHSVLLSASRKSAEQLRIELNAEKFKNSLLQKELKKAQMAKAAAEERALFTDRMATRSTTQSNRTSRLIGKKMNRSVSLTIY

[28] = molecular target: G2/mitotic-specific cyclin-B1 (Homo sapiens, UniProt P14635); test: G2/M cell cycle arrest in HeLa, late-stage follow-up, mechanism study for Wee1 degradation inhibitor project, FACS, panel member Cyclin B Degradation (AID 2088)
[29] = molecular target: T5, Mannose-6-phosphate isomerase (Homo sapiens, UniProt P34949); test: inhibitors of human PMI, primary screen, biochemical, fluorescence intensity, coupled assay (AID 1209)
T5 sequence (P34949 whole entry): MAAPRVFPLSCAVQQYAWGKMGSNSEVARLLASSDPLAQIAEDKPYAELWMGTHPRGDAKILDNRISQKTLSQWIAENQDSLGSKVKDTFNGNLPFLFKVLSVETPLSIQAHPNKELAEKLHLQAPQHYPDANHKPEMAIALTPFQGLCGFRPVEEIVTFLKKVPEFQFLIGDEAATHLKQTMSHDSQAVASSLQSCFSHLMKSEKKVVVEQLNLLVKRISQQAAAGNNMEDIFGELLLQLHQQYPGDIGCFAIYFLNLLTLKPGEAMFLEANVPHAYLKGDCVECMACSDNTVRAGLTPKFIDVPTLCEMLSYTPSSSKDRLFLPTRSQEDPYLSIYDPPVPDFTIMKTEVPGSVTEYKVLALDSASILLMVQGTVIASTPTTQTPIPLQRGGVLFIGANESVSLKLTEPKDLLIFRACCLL

[30] = inhibitors of Bluetongue virus cytopathic effect, confirmation, arbovirus, BSR cells (AID 1250); assay type: functional;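 further: protection from viral cytopathic effect measured as cell viability by ATP luminescence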
[31] = molecular target: T5, Mannose-6-phosphate isomerase; test: human PMI inhibitors, high substrate, primary screen, biochemical, fluorescence intensity, high mannose 6-phosphate (AID 1220)
Cytochrome P450 3A4 = Cytochrome P450 3A4 (Homo sapiens, UniProt P08684); details: Potency;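 further: confirmatory qHTS run detecting inhibitors and substrates of CYP3A4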
[32] = Luminescence Cell-Based Dose Confirmation HTS to Identify Inhibitors of Polyadenylation.; assay type: functional

Chain of Inward rectifier potassium channel 2 (P35561 whole entry): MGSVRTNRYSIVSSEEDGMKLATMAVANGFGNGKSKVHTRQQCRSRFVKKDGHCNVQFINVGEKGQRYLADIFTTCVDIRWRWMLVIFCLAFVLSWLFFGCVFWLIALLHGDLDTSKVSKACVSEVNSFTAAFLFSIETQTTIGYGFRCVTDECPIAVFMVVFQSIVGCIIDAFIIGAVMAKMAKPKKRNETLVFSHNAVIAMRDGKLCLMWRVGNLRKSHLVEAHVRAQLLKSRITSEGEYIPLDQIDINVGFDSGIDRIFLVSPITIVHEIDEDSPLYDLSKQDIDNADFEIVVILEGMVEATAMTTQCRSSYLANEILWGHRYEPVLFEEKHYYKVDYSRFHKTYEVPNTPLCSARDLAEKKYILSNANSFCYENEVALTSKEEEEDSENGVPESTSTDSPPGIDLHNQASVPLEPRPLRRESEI

COc1ccc(CNCc2cc(F)cc(F)c2)cc1
IC50 [1]: 7.22 µM (active)

CC(=O)OC(C)(C)/N=N\c1ccc(Br)cc1
AC50 (Cytochrome P450 2D6): 3.16 µM (inconclusive)
AC50 (Cytochrome P450 2C9): 5.01 µM (inconclusive)

Cc1cc(C(=O)CN2C(=O)C(=O)N(Cc3ccccc3)C2=O)c(C)n1Cc1ccccc1
EC50 [2]: > 30 µM (not active)
AC50 [3]: 2.54 µM (active)

N#Cc1c2n(c3c(=O)n(Cc4ccccc4Cl)cnc13)CCCCC2
EC50 [4]: > 50 µM (not active)

O=C(O)COc1ccccc1C(Nc1ccccn1)c1cc(Cl)c2cccnc2c1O (stereo not drawn)
IC50 [5]: 1.74 µM (active)
IC50 (Bcl-2-like protein 1): > 109 µM (not active)
IC50 [6]: 9.35 µM (active)
IC50 (Genome polyprotein): 43.3 µM (active)
IC50 (Fatty acid synthase [7]): 18.5 µM (active)
IC50 (Fatty acid synthase [8]): 14.3 µM (active)

CC(=O)N1CCc2cc(NN=C3C(=O)CC(C)(C)CC3=O)ccc21
EC50 [9]: > 100 µM (active)
IC50 [10]: 35.5 µM (active)
IC50 [11]: > 100 µM (inactive)
IC50 (Prothrombin): 31.5 µM (active)

CCOc1ccc(S(=O)(=O)Nc2cc(OC)ccc2OC)cc1
EC50 [12]: 0.553 µM (active)
EC50 (BJ [13]): 0.451 µM (active)
EC50 (cells): 0.839 µM (active)
EC50 [14]: < 0.1 µM (active)
EC50 (BJ [15]): 21.2 µM (active)
EC50 (BJ [16]): 0.495 µM (inconclusive)
EC50 [17]: 0.965 µM (inconclusive)
EC50 [18]: 0.947 µM (active)

Cc1cccc2c(N)c3c(nc12)CCCC3.O=C(O)c1cc([N+](=O)[O-])ccc1Cl
EC50 [19]: 5.53 µM (active)
EC50 (HEK293): 8.74 µM (active)
EC50 [20]: 3.65 µM (active)
EC50 [21]: 5.24 µM (active)
EC50 [22]: 3.41 µM (active)

CC(C)c1ccc(NC(=O)C(c2ccc3c(c2)OCO3)N2CCCCC2)cc1 (stereo not drawn)
IC50 (Staphylococcus aureus): 0.254 µM (active)

O=c1c2cc(Cl)cc(Cl)c2nc2n1CCC2
CC50 (Vero [23]): > 100 µM (active)
CC50 (Vero [24]): > 40 µM (active)

CSc1ccccc1NC(=O)C1CC(c2ccccc2O)=NO1 (stereo not drawn)
IC50 [25]: > 50 µM (not active)
IC50 [26]: > 50 µM (not active)

COc1ccc(OC)c(NC(=O)c2cc(CN3CCCC3)on2)c1
EC50 [27]: > 55.7 µM (inactive)

Cc1cccc(CC(=O)Nc2cc(C)nn2-c2nc(C)cc(=O)[nH]2)c1
EC50 (Wee1-like protein kinase): > 49.7 µM (inactive)
EC50 [28]: > 49.7 µM (inactive)

Cc1cc(/N=C/c2c(O)ccc3cc(Br)ccc23)no1
IC50 [29]: > 50 µM (not active)
IC50 [30]: 31.8 µM (active)
IC50 [6]: > 54 µM (not active)
IC50 [31]: > 50 µM (not active)

C[C@@H]1CCC2[C@@H](C)[C@@H](O)O[C@@H]3O[C@@]4(C)CC[C@@H]1[C@@]23OO4 (stereo partly drawn)
AC50 (Cytochrome P450 3A4): 12.6 µM (inconclusive)

CC(C)=CCOc1c2ccoc2cc2oc(=O)ccc12 [ISOIMPERATORIN]
EC50 [32]: > 120 µM (not active)

From ChEMBL document CHEMBL1201862, “PubChem BioAssay data set” (2004)
